Data taken from the NIST ThermoML archive (doi:10.1016/j.jct.2011.08.016).

Assay: xn = mol fraction of the nth substance listed
Details: Liquid, Vibrating tube method

CCCCCCCCCC [decane] + CCCCCCCC
Details | mass density [kg/m3]
313.14 K, 1000 kPa, x2 = 0.0616 | 714.37
313.14 K, 2000 kPa, x2 = 0.0616 | 715.15
313.14 K, 3000 kPa, x2 = 0.0616 | 716
313.14 K, 4000 kPa, x2 = 0.0616 | 716.89
313.14 K, 5000 kPa, x2 = 0.0616 | 717.71
313.14 K, 6000 kPa, x2 = 0.0616 | 718.51
313.14 K, 7000 kPa, x2 = 0.0616 | 719.36
313.14 K, 8000 kPa, x2 = 0.0616 | 720.16
313.14 K, 9000 kPa, x2 = 0.0616 | 720.97
313.14 K, 10000 kPa, x2 = 0.0616 | 721.75
313.14 K, 10990 kPa, x2 = 0.0616 | 722.52
313.14 K, 12000 kPa, x2 = 0.0616 | 723.27
313.14 K, 13000 kPa, x2 = 0.0616 | 724.05
313.14 K, 14000 kPa, x2 = 0.0616 | 724.81
313.14 K, 15000 kPa, x2 = 0.0616 | 725.5
313.14 K, 16000 kPa, x2 = 0.0616 | 726.26
313.14 K, 17000 kPa, x2 = 0.0616 | 726.99
313.14 K, 18000 kPa, x2 = 0.0616 | 727.69
313.14 K, 19000 kPa, x2 = 0.0616 | 728.37
313.14 K, 20000 kPa, x2 = 0.0616 | 729.06
313.14 K, 21000 kPa, x2 = 0.0616 | 729.73
313.14 K, 22000 kPa, x2 = 0.0616 | 730.38
313.14 K, 23000 kPa, x2 = 0.0616 | 731.03
313.14 K, 24000 kPa, x2 = 0.0616 | 731.6
313.14 K, 25000 kPa, x2 = 0.0616 | 732.22
313.17 K, 1000 kPa, x2 = 0.2801 | 709.26
313.17 K, 1000 kPa, x2 = 0.9623 | 688.85
313.17 K, 2000 kPa, x2 = 0.2801 | 710.07
313.17 K, 2000 kPa, x2 = 0.9623 | 689.77
313.17 K, 3000 kPa, x2 = 0.2801 | 710.9
313.17 K, 3000 kPa, x2 = 0.9623 | 690.64
313.17 K, 4000 kPa, x2 = 0.2801 | 711.79
313.17 K, 4000 kPa, x2 = 0.9623 | 691.53
313.17 K, 5000 kPa, x2 = 0.2801 | 712.65
313.17 K, 5000 kPa, x2 = 0.9623 | 692.37
313.17 K, 6000 kPa, x2 = 0.2801 | 713.47
313.17 K, 6000 kPa, x2 = 0.9623 | 693.31
313.17 K, 7000 kPa, x2 = 0.2801 | 714.32
313.17 K, 7000 kPa, x2 = 0.9623 | 694.24
313.17 K, 8000 kPa, x2 = 0.2801 | 715.17
313.17 K, 8000 kPa, x2 = 0.9623 | 695.11
313.17 K, 9000 kPa, x2 = 0.2801 | 715.99
313.17 K, 9000 kPa, x2 = 0.9623 | 696.04
313.17 K, 10000 kPa, x2 = 0.2801 | 716.81
313.17 K, 10000 kPa, x2 = 0.9623 | 696.93
313.17 K, 10990 kPa, x2 = 0.2801 | 717.63
313.17 K, 10990 kPa, x2 = 0.9623 | 697.85
313.17 K, 12000 kPa, x2 = 0.2801 | 718.42
313.17 K, 12000 kPa, x2 = 0.9623 | 698.72
313.17 K, 13000 kPa, x2 = 0.2801 | 719.2
313.17 K, 13000 kPa, x2 = 0.9623 | 699.57
313.17 K, 14000 kPa, x2 = 0.2801 | 719.98
313.17 K, 14000 kPa, x2 = 0.9623 | 700.45
313.17 K, 15000 kPa, x2 = 0.2801 | 720.74
313.17 K, 15000 kPa, x2 = 0.9623 | 701.33
313.17 K, 16000 kPa, x2 = 0.2801 | 721.5
313.17 K, 16000 kPa, x2 = 0.9623 | 702.18
313.17 K, 17000 kPa, x2 = 0.2801 | 722.23
313.17 K, 17000 kPa, x2 = 0.9623 | 703
313.17 K, 18000 kPa, x2 = 0.2801 | 723
313.17 K, 18000 kPa, x2 = 0.9623 | 703.81
313.17 K, 19000 kPa, x2 = 0.2801 | 723.67
313.17 K, 19000 kPa, x2 = 0.9623 | 704.6
313.17 K, 20000 kPa, x2 = 0.2801 | 724.35
313.17 K, 20000 kPa, x2 = 0.9623 | 705.32
313.17 K, 21000 kPa, x2 = 0.2801 | 725.02
313.17 K, 21000 kPa, x2 = 0.9623 | 706.06
313.17 K, 22000 kPa, x2 = 0.2801 | 725.7
313.17 K, 22000 kPa, x2 = 0.9623 | 706.8
313.17 K, 23000 kPa, x2 = 0.2801 | 726.3
313.17 K, 23000 kPa, x2 = 0.9623 | 707.48
313.17 K, 24000 kPa, x2 = 0.2801 | 726.9
313.17 K, 24000 kPa, x2 = 0.9623 | 708.16
313.17 K, 25000 kPa, x2 = 0.2801 | 727.55
313.17 K, 25000 kPa, x2 = 0.9623 | 708.78
313.19 K, 1000 kPa, x2 = 0.5314 | 702.8
313.19 K, 1000 kPa, x2 = 0.7736 | 695.32
313.19 K, 2000 kPa, x2 = 0.5314 | 703.69
313.19 K, 2000 kPa, x2 = 0.7736 | 696.27
313.19 K, 3000 kPa, x2 = 0.5314 | 704.53
313.19 K, 3000 kPa, x2 = 0.7736 | 697.14
313.19 K, 4000 kPa, x2 = 0.5314 | 705.35
313.19 K, 4000 kPa, x2 = 0.7736 | 698.01
313.19 K, 5000 kPa, x2 = 0.5314 | 706.16
313.19 K, 5000 kPa, x2 = 0.7736 | 698.89
313.19 K, 6000 kPa, x2 = 0.5314 | 707.05
313.19 K, 6000 kPa, x2 = 0.7736 | 699.8
313.19 K, 7000 kPa, x2 = 0.5314 | 707.93
313.19 K, 7000 kPa, x2 = 0.7736 | 700.67
313.19 K, 8000 kPa, x2 = 0.5314 | 708.77
313.19 K, 8000 kPa, x2 = 0.7736 | 701.55
313.19 K, 9000 kPa, x2 = 0.5314 | 709.59
313.19 K, 9000 kPa, x2 = 0.7736 | 702.44
